Measurements: patent publication US5462933A, “Modified bile acid conjugates, and their use as pharmaceuticals” (Hoechst Aktiengesellschaft, priority 1989, dated 1995)

Columns and labels:
[1] = tested on: 54,000 (membrane transport protein); test: Photoaffinity labeling of bile acid-binding proteins in hepatocytes in the presence of competitor; design: species or system rat
Excerpt: (§1) The molecules of these physiologically relevant binding proteins for bile acids were identified and characterized by the method of photoaffinity labeling. The principle of this method consists in binding a photoreactive radioactively labeled bile acid derivative to the physiological binding protein analogously to the natural bile acids. By irradiation with UV light, highly reactive chemical intermediates such as carbenes, nitrenes or radicals are generated in this derivative which, owing to their high reactivity, immediately react with the binding proteins by addition to double bonds or insertion in single bonds and bind covalently to these. By means of this covalent linkage of the radioactive bile acid derivative with the binding protein, the binding proteins are then also radioactively labeled and can be identified by a separation of the various proteins of a liver cell, for example by electrophoresis, and their molecular weight determined.
(§2) If such a photoaffinity labeling is carried out in the presence of a substance X' which also binds to the bile acid-binding proteins, then X' will compete with the radioactive bile acid derivative for binding to the bile acid-binding proteins; the radioactive labeling of the corresponding binding proteins will thus be lower in the presence of X'.
(§3) 3.6×10^6 freshly isolated hepatocytes from rat liver (about 3 mg of protein) in 1.5 ml of buffer I (118 mM NaCl, 4.74 mM KCl, 0.59 mM KH2 PO4, 0.59 mM Na2 HPO4 ×2 H2 O, 1.185 mM MgCl2 ×6 H2 O, 24.87 mM NaHCO3, 1.25 mM CaCl2, 5.5 mM D-glucose, pH 7.35, buffer aerated with carbogen (95% O2 /5% CO2) for 1 h) were incubated at 37° C. […] in the dark with 1.25 μM (25 μCi) of (7,7-azo-3α-12α-dihydroxy-5β[3-^3 H]cholan-24-oyl)-2-aminoethanesulfonic acid in the absence or in the presence of 250 μM "Example 3" and then irradiated at […] with 16 RPR 3500 Å-lamps for 5 min in a Rayonet RPR-100 photoreactor. The cell suspension was then diluted with 10 ml of ice-cold buffer I and the cells sedimented by centrifuging at 1000×g for 3 minutes. The cells were resuspended again in 10 ml of buffer I and again sedimented by centrifugation. The precipitate was taken up in 600 μl of tris/HCl buffer (pH 6.8)/2% sodium dodecylsulfate (SDS)/5% 2-mercaptoethanol/10% glycerol/0.001% Bromophenol blue, heated to 90° C. for 5 min and centrifuged at 40,000×g for 20 min. The clear supernatant containing the solubilized proteins was used subsequently. In each case 100 μl (500 μg of protein) were applied to discontinuous SDS slab gels (200×170×2.7 mm, total acrylamide concentration 12%) and the proteins were separated by electrophoresis at a voltage of 50 V. After the electrophoresis, the gels were fixed in 12.5% strength trichloroacetic acid solution and stained using 0.08% Serva blue R 250 solution in 25% ethanol/8% acetic acid/67% water. After destaining, the gels were equilibrated in 1M sodium salicylate solution in 70% methanol for 20 min and then dried. The distribution of the radioactively labeled proteins was determined by the fluorographic method by placing the dried gels on Kodak-X-Omat AR X-ray films and exposing at -80° C. for 14 d. The blackened films were measured by densitometry. The decrease in the labeling of the various bile acid-binding proteins owing to the presence of "Example 3" during the photoaffinity labeling is given in % relative to the control.

[2] = tested on: 33,000 (binding protein in mitochondria); test: as above; design: species or system rat
Excerpt: as §1, §2, §3

[3] = tested on: 48,000 (membrane transport protein); test: as above; design: species or system rat
Excerpt: as §1, §2, §3

[4] = tested on: 43,000 (cytoskeletal protein); test: as above; design: species or system rat
Excerpt: as §1, §2, §3

[5] = tested on: 36,000 (transport protein in the cytoplasm); test: as above; design: species or system rat
Excerpt: as §1, §2, §3

[6] = biological target: T1, 67,000 (albumin) (Rattus norvegicus, UniProt P02770); test: as above; settings: decrease in labeling relative to control
T1 construct: freshly isolated hepatocytes from rat liver; endogenous in cells; host or cells: freshly isolated rat hepatocytes
T1 sequence (P02770 25-608): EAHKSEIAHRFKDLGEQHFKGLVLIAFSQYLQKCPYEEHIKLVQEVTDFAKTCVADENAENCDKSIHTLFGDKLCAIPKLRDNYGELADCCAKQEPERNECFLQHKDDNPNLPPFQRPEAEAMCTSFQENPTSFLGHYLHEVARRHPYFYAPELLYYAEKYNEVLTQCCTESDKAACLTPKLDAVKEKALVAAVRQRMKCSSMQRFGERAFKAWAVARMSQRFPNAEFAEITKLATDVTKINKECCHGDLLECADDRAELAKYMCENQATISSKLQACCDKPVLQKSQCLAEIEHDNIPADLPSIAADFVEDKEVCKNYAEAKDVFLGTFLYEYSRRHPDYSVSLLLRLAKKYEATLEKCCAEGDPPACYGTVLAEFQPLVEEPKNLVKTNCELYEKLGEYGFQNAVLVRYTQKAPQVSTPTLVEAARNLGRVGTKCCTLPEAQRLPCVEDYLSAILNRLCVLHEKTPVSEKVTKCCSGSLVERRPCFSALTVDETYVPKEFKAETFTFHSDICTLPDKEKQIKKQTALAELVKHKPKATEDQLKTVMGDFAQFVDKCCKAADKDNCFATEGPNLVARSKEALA
Excerpt: as §1
as §2, with “X'. […]” for “X'.”

[7] = tested on: liver cell proteins; test: Alkylation of liver cell proteins in freshly isolated hepatocytes; type: cell-based, rat
Experimental: Freshly isolated hepatocytes (2×10^6) in 2 ml of buffer I were incubated at 37° C. with 30 μCi of "Example 5". After 10, 30, 40 and 60 min, in each case 500 μl of cell suspension (500 μg of protein) were removed and diluted with 10 ml of ice-cold buffer I. After centrifuging at 1000×g for 3 minutes, the precipitate was resuspended in 10 ml of buffer I and the suspension was centrifuged again. The cell precipitates were each dissolved in 100 μl of 62.5 mM tris/HCl buffer (pH 6.8)/2% SDS/5% 2-mercaptoethanol/10% glycerol/0.001% Bromophenol blue, centrifuged at 48,000×g for 30 min and the clear supernatants were applied to discontinuous SDS slab gels (200×170×2.7 mm). After the electrophoretic separation, the gels were fixed and stained. To determine the distribution of the radioactivity, the individual gel tracks were divided into 2 mm sections, the proteins were digested with Biolute S by incubation with 0.5 ml, and after addition of 5 ml of Quickszint 501 scintillator, the samples were measured in a liquid scintillation counter.

[8] = tested on: freshly isolated hepatocytes; test: Metabolism by freshly isolated hepatocytes; type: in vitro ADME, rat; design: Distribution of the radioactivity: Metabolite 1 Rf = 0.32 / Distribution of the radioactivity: Metabolite 3 Rf = 0.21 (not identified): concentration or dose not given beside the values
Experimental: Freshly isolated hepatocytes (1.8×10^6) in 750 μl of buffer I were incubated at 37° C. with 5.5 μCi of "Example 5". After 10, 20, 30, 40 and 60 min, 100 μl of the cell suspension were removed in each case, diluted with 10 ml of ice-cold buffer I and centrifuged at 1000×g for 5 min. The cell precipitate was treated twice with 100 μl of chloroform/methanol solution (1/1, v/v) each time to extract the bile acid. The organic extracts were evaporated in a stream of N2, and the residues were each taken up in 20 μl of dioxane and applied to HPTLC thin layer plates. After developing the chromatogram using n-butanol/acetic acid/water (9:1:2, v/v/v) as the eluent, the plate was dried, sprayed with 1M sodium salicylate solution in methanol and, after drying, placed on a Kodak-X-Omat AR X-ray film. After exposure at -80° C. for 1 week, the film was developed and the distribution of the radioactivity was determined by densitometry. The distribution of the radioactivity in the individual metabolites is given in %.

## C[C@H](CCC(=O)NCCS(=O)(=O)O)[C@H]1CC[C@H]2[C@@H]3CC[C@@H]4C[C@H](OC(=O)CCCc5ccc(N(CCCl)CCCl)cc5)CC[C@]4(C)[C@H]3CC(=O)[C@]12C [Example 3]
[1]
  % Inhibition of bile acid-binding proteins by 250 μM "Example 3": 89.6%
[2]
  % Inhibition of bile acid-binding proteins by 250 μM "Example 3": 93.2%
[3]
  % Inhibition of bile acid-binding proteins by 250 μM "Example 3": 88.8%
[4]
  % Inhibition of bile acid-binding proteins by 250 μM "Example 3": 88.1%
[5]
  % Inhibition of bile acid-binding proteins by 250 μM "Example 3": 98.1%
[6]
  % Inhibition of bile acid-binding proteins by 250 μM "Example 3": 90.5%

## [3H]C1(O)C[C@H]2[C@@H](CC[C@@H]3C[C@H](OC(=O)CCCc4ccc(N(CCCl)CCCl)cc4)CC[C@@]32C)[C@@H]2CC[C@H]([C@H](C)CCC(=O)NCCS(=O)(=O)O)[C@]21C (stereo partly shown) [Example 5]
[7]; in membranes, cytoplasm and cell organelles, result in words
  Radioactive labeling of liver cell proteins: leads to a radioactive labeling of liver cell proteins
[7]; incubation 0 min
  Radioactivity in labeled liver proteins: < 30 cpm
[7]; incubation 10 min, 48 kDa
  Radioactivity in labeled liver proteins: 408 cpm
[7]; incubation 10 min, 67 kDa
  Radioactivity in labeled liver proteins: 102 cpm
[7]; incubation 30 min, 28 kDa
  Radioactivity in labeled liver proteins: 2190 cpm
[7]; incubation 30 min, 33 kDa
  Radioactivity in labeled liver proteins: 1116 cpm
[7]; incubation 30 min, 42 kDa
  Radioactivity in labeled liver proteins: 1711 cpm
[7]; incubation 30 min, 48 kDa
  Radioactivity in labeled liver proteins: 1375 cpm
[7]; incubation 30 min, 54 kDa
  Radioactivity in labeled liver proteins: 1811 cpm
[7]; incubation 30 min, 122 kDa
  Radioactivity in labeled liver proteins: 1064 cpm
[7]; incubation 40 min, 28 kDa
  Radioactivity in labeled liver proteins: 2682 cpm
[7]; incubation 40 min, 33 kDa
  Radioactivity in labeled liver proteins: 1474 cpm
[7]; incubation 40 min, 42 kDa
  Radioactivity in labeled liver proteins: 2650 cpm
[7]; incubation 40 min, 48 kDa
  Radioactivity in labeled liver proteins: 2420 cpm
[7]; incubation 40 min, 54 kDa
  Radioactivity in labeled liver proteins: 2385 cpm
[7]; incubation 40 min, 122 kDa
  Radioactivity in labeled liver proteins: 1549 cpm
[7]; incubation 60 min, 28 kDa
  Radioactivity in labeled liver proteins: 2163 cpm
[7]; incubation 60 min, 42 kDa
  Radioactivity in labeled liver proteins: 1725 cpm
[7]; incubation 60 min, 48 kDa
  Radioactivity in labeled liver proteins: 2074 cpm
[7]; incubation 60 min, 54 kDa
  Radioactivity in labeled liver proteins: 1949 cpm
[7]; incubation 60 min, 122 kDa
  Radioactivity in labeled liver proteins: 997 cpm
[8]; incubation 10 min
  Distribution of the radioactivity: "Example 5" Rf = 0.49: 31.34%
  Distribution of the radioactivity: Metabolite 1 Rf = 0.32: 33.79%
  Distribution of the radioactivity: Metabolite 2 Rf = 0.36: 38.03%
  Distribution of the radioactivity: Metabolite 3 Rf = 0.21 (not identified): 5.62%
[8]; incubation 20 min
  Distribution of the radioactivity: "Example 5" Rf = 0.49: 26.51%
  Distribution of the radioactivity: Metabolite 1 Rf = 0.32: 29.49%
  Distribution of the radioactivity: Metabolite 2 Rf = 0.36: 32.25%
  Distribution of the radioactivity: Metabolite 3 Rf = 0.21 (not identified): 11.74%
[8]; incubation 30 min
  Distribution of the radioactivity: "Example 5" Rf = 0.49: 23.76%
  Distribution of the radioactivity: Metabolite 1 Rf = 0.32: 29.88%
  Distribution of the radioactivity: Metabolite 2 Rf = 0.36: 34.18%
  Distribution of the radioactivity: Metabolite 3 Rf = 0.21 (not identified): 12.16%
[8]; incubation 40 min
  Distribution of the radioactivity: "Example 5" Rf = 0.49: 13.78%
  Distribution of the radioactivity: Metabolite 1 Rf = 0.32: 33.52%
  Distribution of the radioactivity: Metabolite 2 Rf = 0.36: 40.93%
  Distribution of the radioactivity: Metabolite 3 Rf = 0.21 (not identified): 11.75%
[8]; incubation 60 min
  Distribution of the radioactivity: "Example 5" Rf = 0.49: 11.00%
  Distribution of the radioactivity: Metabolite 1 Rf = 0.32: 33.7%
  Distribution of the radioactivity: Metabolite 2 Rf = 0.36: 45.7%
  Distribution of the radioactivity: Metabolite 3 Rf = 0.21 (not identified): 10.3%
[8]; result in words
  Absorption into the cell interior by the liver cells: is absorbed into the cell interior by the liver cells
  Hydrolytic cleavage into free chlorambucil and bile acid: rapidly cleaved hydrolytically
